Results as given in ChEMBL document CHEMBL3785004, “New antimalarial norterpene cyclic peroxides from Xisha Islands sponge Diacarnus megaspinorhabdosa” (Bioorg Med Chem Lett, 2016).

Legend:
Plasmodium falciparum [1] = experiment: Antimalarial activity against chloroquine resistant Plasmodium falciparum W2 after 72 hrs by LDH assay; assay type: functional, organism-based; details: W2, 72 h
Plasmodium falciparum [2] = experiment: Antimalarial activity against chloroquine sensitive Plasmodium falciparum D6 after 72 hrs by LDH assay; assay type: functional, organism-based; details: D6, 72 h
[3] = Selectivity index, ratio of IC50 for Vero cells to IC50 for chloroquine resistant Plasmodium falciparum W2; assay type: toxicity, cell-based; details: monkey, read-out: Ratio IC50
[4] = Selectivity index, ratio of IC50 for Vero cells to IC50 for chloroquine sensitive Plasmodium falciparum D6; assay type: toxicity, cell-based; details: monkey, read-out: Ratio IC50

SMILES	IC50 (Plasmodium falciparum [1]) [µM]	IC50 (Plasmodium falciparum [2]) [µM]	selectivity ratio [3]	selectivity ratio [4]
C=C1CCCC(C)(C)C1(O)CC/C(C)=C/CC[C@@]1(C)CC[C@H]([C@H](C)C(=O)O)OO1 (some centres undefined)	4.9	7.3	2.4	1.6
CC1=C(CC[C@]2(C)CC[C@H]([C@@H](C)C(=O)O)OO2)C(C)(C)CCC1	5.5	8.1	2.6	1.7
C=C1CCCC(C)(C)C1(O)CC/C(C)=C/CC[C@@]1(C)CC[C@H]([C@H](C)C(=O)OC)OO1 (some centres undefined)	1.6	2.2	7	5.1
COC(=O)[C@@H](C)[C@H]1CC[C@](C)(CC/C=C(\C)CCC2(O)C(C)CCCC2(C)C)OO1 (some centres undefined)	4.2	5.6	2.6	2
COC(=O)[C@@H](C)[C@H]1CC[C@](C)(CC/C=C(\C)CCC2(C)C(C)CCCC2(C)O)OO1 (some centres undefined)	3	6.6	3.7	1.7
CC1=C(CC/C(C)=C/CC[C@@]2(C)CC[C@H]([C@H](C)C(=O)O)OO2)C(C)(C)CCC1	5.6	8.6	2.2	1.4
C[C@@H]1CC[C@H]2[C@@H](C)C(=O)O[C@@H]3O[C@@]4(C)CC[C@@H]1[C@]32OO4 [ARTEMISININ]	0.14	–	–	–
COC(=O)[C@H](C)[C@H]1CC[C@@](C)(CCC2=C(C)C(=O)CCC2(C)C)OO1 [DIACARPEROXIDE A]	1.9	2	6.8	6.5
